PubChem BioAssay (NCI)
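Following 48 hours of exposure in 96-well plates, responses at five concentrations were used to interpolate endpoints linearly. GI50 marks 50% less growth. At the TGI there is no net growth.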

Experiments:
Test in all cases: NCI anticancer screen, dose series, 48 h
ACHN renal = tested on: ACHN renal
SN12C renal = tested on: SN12C renal
UACC-257 melanoma = tested on: UACC-257 melanoma
K-562 leukemia = tested on: K-562 leukemia
CAKI-1 renal = tested on: CAKI-1 renal
NCI-H23 lung = tested on: NCI-H23 lung
HCT-15 colon = tested on: HCT-15 colon
A498 renal = tested on: A498 renal
786-0 renal = tested on: 786-0 renal
HCC-2998 colon = tested on: HCC-2998 colon

Row | SMILES | TGI (ACHN renal) [µM] | TGI (SN12C renal) [µM] | TGI (UACC-257 melanoma) [µM] | TGI (K-562 leukemia) [µM] | TGI (CAKI-1 renal) [µM] | TGI (NCI-H23 lung) [µM] | TGI (HCT-15 colon) [µM] | TGI (A498 renal) [µM] | TGI (786-0 renal) [µM] | TGI (HCC-2998 colon) [µM] | GI50 (ACHN renal) [µM] | GI50 (SN12C renal) [µM] | GI50 (UACC-257 melanoma) [µM] | GI50 (K-562 leukemia) [µM] | GI50 (CAKI-1 renal) [µM] | GI50 (NCI-H23 lung) [µM] | GI50 (HCT-15 colon) [µM] | GI50 (A498 renal) [µM]
1 | CCOC(=O)/C(=C/c1cn(C(C)=O)c2ccccc12)P(=O)(OC)OC | > 100 | > 100 | 41.5 | > 100 | > 100 | > 100 | > 100 | 52.4 | – | – | – | – | – | – | – | – | – | –
2 | COc1cc2c(cc1OCCN1CCN(CCOc3cc4c(cc3OC)C(=O)N3CCC[C@H]3C=N4)CC1)N=C[C@@H]1CCCN1C2=O | > 91.6 | > 100 | > 100 | > 60.5 | 49.3 | 46 | > 100 | > 72.5 | > 76.8 | – | – | – | – | – | – | – | – | –
3 | C[C@]12CC[C@H]3[C@@H](CCC4=C/C(=N/OCCN5CCCCC5)CC[C@@]43C)[C@@H]1CC[C@@H]2O | 51.6 | 38.2 | 37.3 | 7.25 | 55.3 | 30.4 | 21.2 | – | > 100 | 27.4 | – | – | – | – | – | – | – | –
4 | CC1(c2ccc(Cl)cc2)c2ccccc2C(=O)N1CCCN1C(=O)c2ccccc2C1=O (configuration not stated) | > 100 | > 100 | > 100 | > 100 | > 100 | 97.9 | > 100 | > 100 | > 100 | – | – | – | – | – | – | – | – | –
5 | Oc1ccccc1/C=N/c1nc(-c2ccccc2)cs1 | > 100 | > 100 | > 100 | 68 | 62.6 | 41.8 | > 100 | > 100 | – | – | 32.2 | 30.9 | 44.3 | 19.6 | 22.5 | 18.4 | 29.4 | 77
6 | CC(C)(C)c1cc(C(C)(C)C)c2sc(=O)oc2c1O | 24.8 | 27.1 | 20.2 | 30.4 | 25.3 | – | 25.3 | 27.3 | 38.1 | – | – | – | – | – | – | – | – | –
7 | CC(C)(C)C(=O)C(N)C(=O)C(C)(C)C | > 100 | > 100 | > 100 | > 100 | > 100 | – | > 100 | – | > 100 | > 100 | – | – | – | – | – | – | – | –
8 | N#CC(c1cc(Cl)ncn1)c1nc2cc(C(F)(F)F)ccc2s1 (configuration not stated) | 59.6 | > 100 | > 100 | > 100 | > 100 | 6.97 | 13.6 | 56.2 | 13.4 | – | – | – | – | – | – | – | – | –
9 | CC1CC(C)(C)CC(OCCN2CCCCC2)(c2ccccc2)C1 (configuration not stated) | 30.3 | 25.4 | 24.2 | 28.7 | 25.5 | 32.6 | 27.5 | 26.1 | 22.6 | – | – | – | – | – | – | – | – | –
10 | CCOC(=O)CCC(C(=O)OCC)n1nnc2cc(Nc3c(C)[n+]([O-])c4cc(Cl)ccc4[n+]3[O-])ccc21 (configuration not stated) | > 100 | > 100 | > 100 | > 100 | > 100 | > 100 | > 100 | > 100 | > 100 | – | – | – | – | – | – | – | – | –
11 | O=c1[nH]c2ccccc2c(=O)n1/N=C\c1ccccc1O | > 100 | > 100 | > 100 | > 100 | > 100 | > 100 | > 100 | > 100 | > 100 | – | – | – | – | – | – | – | – | –
12 | CN(CC(=O)O)c1ncc2c(n1)-c1ccccc1CC2 | > 100 | > 100 | > 100 | > 100 | > 100 | > 100 | > 100 | > 100 | > 100 | – | – | – | – | – | – | – | – | –
13 | COc1cc(CNc2nc3c(NC(C)=O)cc(C(F)(F)F)cc3nc2-c2ccccc2)cc(OC)c1OC | > 100 | > 100 | – | > 100 | > 100 | – | > 100 | – | – | > 100 | – | – | – | – | – | – | – | –
14 | Nc1ncnc2c1ncn2C1C(O)C=C(CO)C1O (configuration not stated) | – | > 625 | – | – | > 625 | – | > 625 | – | – | > 625 | – | – | – | – | – | – | – | –
15 | CCOC(=O)C(NC(=O)c1ccccc1)(Nc1ccc(S(=O)(=O)Nc2cc(C)on2)cc1)C(F)(F)F (configuration not stated) | > 100 | > 100 | > 10 | > 100 | > 100 | > 10 | > 100 | – | > 100 | > 100 | – | – | – | – | – | – | – | –
16 | CCOC(=O)/C=C(/OCC)[C@@H]1C(C(=O)c2ccc(Cl)cc2)[C@@H]1/C(=C\C(=O)OCC)OCC (some centres not stated) | > 69.1 | > 100 | > 100 | > 22.3 | > 100 | 81.8 | > 100 | > 100 | > 100 | – | – | – | – | – | – | – | – | –
17 | Cc1c(-c2ccccc2)oc(=O)c2ccccc12 | 98.2 | 38.1 | 30.7 | > 100 | 53.9 | 56.6 | 54.2 | – | 51.2 | 37.8 | – | – | – | – | – | – | – | –
18 | CCCCCCCCCCCCCCCCOC[C@H](COC(c1ccccc1)(c1ccccc1)c1ccccc1)O[P+](=S)OC (some centres not stated) | > 100 | > 100 | > 100 | > 100 | > 100 | > 100 | > 100 | > 100 | > 100 | – | – | – | – | – | – | – | – | –
19 | O=C(Nc1nnc(-c2ccccc2)o1)C(SC(=S)N1CCCC1)c1ccccc1 (configuration not stated) | > 100 | > 100 | > 100 | > 100 | > 100 | 79.7 | > 100 | 81.6 | > 100 | – | – | – | – | – | – | – | – | –
